Experimental findings from PubChem BioAssay (NCI) are described below.

Where “and” joins values, the source holds several entries; their conditions need not be identical. Equal values may be shown once.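 Cultured in 96-well plates, cells were exposed to test compound for 48 hours across five concentrations. GI50: concentration for 50% inhibition of growth. TGI: total growth inhibition.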 Where a SMILES comes first, the peptide text is derived from it. The star is where a group is joined. Boc = CC(C)(C)OC(=O)*

For the first experiment, the system named is NCI/ADR-RES ovarian. Description: NCI tumour cell line growth inhibition, 48 h.
On to `O=C(O)c1cc2c(cc1CC(Cc1ccc3c(c1)CCC3)C(=O)O)CCC2` (configuration not stated), for which the TGI was > 100 µM.

Take `COc1cc(-c2cc(=O)c3cc4c(cc3[nH]2)OCO4)cc(OC)c1O`: the TGI was > 10 µM.

Consider `C[C@@]12[C@H]3CC[C@@H]1[C@H](O)C(=O)N2CC3`, for which the TGI is > 100 µM.

Consider `COC(=O)CNC(=O)C(Cc1ccccc1)NC(=O)C(CCSC)NC(=O)C(Cc1ccc(O)cc1)NC(=O)OC(C)(C)C` (configuration not stated) (Boc-YMFG-OMe; configuration not given here), for which the TGI was > 100 µM.

On to `O=C1CCC[C@@H]2NC[C@@H](c3ccc4c(c3)OCO4)[C@H]12`, for which the TGI is > 25 µM.

For `Cc1ccc([C@@H]2[C@@H](C(=O)c3ccccn3)[C@H](c3ccc(C)cc3)C[C@](O)(c3ccccn3)[C@H]2C(=O)c2ccccn2)cc1`, the TGI was > 100 µM.

For the molecule `O=C(Nc1ccc(Br)cc1)c1c(-c2ccccc2)c2ccc(O)cc2oc1=O`, the TGI is > 10 µM.

Molecule `O=C1C(Cl)=C(N2CCN(C3=C(Cl)C(=O)c4ccccc4C3=O)CC2)C(=O)c2ccccc21` returned a TGI of 3.51 µM.

`CCOc1cc(NC(C)=O)ccc1C(=O)NNC(=O)c1ccccc1OC(C)=O`: the TGI is > 78.7 µM.

In the case of `O=C(O)CN(CCNC(=O)OCC1c2ccccc2-c2ccccc21)CCNC(=O)OCC1c2ccccc2-c2ccccc21`, the TGI was > 100 µM.

The subject of the next experiment is OVCAR-4 ovarian. Briefly: NCI tumour cell line growth inhibition, 48 h.
Regarding `CC(C)Sc1nc(C#N)cc2c1CCCC2`, the TGI was > 100 µM.

Take `CCOP(=O)(OCC)/C(C#N)=C/c1cnc(-c2ccccc2)[nH]1`: the TGI was > 100 µM.

As to `CC(=O)OCC1OC(OC(C)(C)CC/C=C(\C)[C@@H]2C/C=C(\C)CC/C=C(\C)CC2)C(O)C(O)C1OC(C)=O` (some centres not stated), the GI50 was > 58.7 µM and 16.2 µM; the TGI was > 100 µM and 32.1 µM.

On to `O=C(CN1c2ccccc2Sc2ccccc21)N1CCNCC1`, for which the TGI was > 100 µM.

`CN(C)CCCOC(=O)C(c1ccccc1)C1(O)CCSCC1` (configuration not stated): the TGI is > 100 µM.

As to `OCC1CCCCCCCCCCC12SCCCS2` (configuration not stated), the TGI was > 100 µM.

For `COCOC1/C=C/CCCCC2=C(C)C=C(C1)O2` (configuration not stated), the TGI was > 100 µM.

On to `C=C(C)C12CC(COC(=O)c3ccccc3)C34OC5(OC1C3C1OC1(CO)C(O)C1(O)C(OC(=O)c3ccccc3)C(C)C(C(C)CCCCCCC5O)C14)O2` (configuration not stated), for which the TGI is > 100 µM.

With `O=C(O)c1cc2c(cc1CC(Cc1ccc3c(c1)CCC3)C(=O)O)CCC2` (configuration not stated), the TGI is > 100 µM.

In the case of `COc1cc(-c2cc(=O)c3cc4c(cc3[nH]2)OCO4)cc(OC)c1O`, the TGI was > 10 µM.

For the molecule `C[C@@]12[C@H]3CC[C@@H]1[C@H](O)C(=O)N2CC3`, the TGI is > 100 µM.

On to `COC(=O)CNC(=O)C(Cc1ccccc1)NC(=O)C(CCSC)NC(=O)C(Cc1ccc(O)cc1)NC(=O)OC(C)(C)C` (configuration not stated) (Boc-YMFG-OMe; configuration not given here), for which the TGI is > 100 µM.

As to `O=C1CCC[C@@H]2NC[C@@H](c3ccc4c(c3)OCO4)[C@H]12`, the TGI is > 25 µM.

Turning to `Cc1ccc([C@@H]2[C@@H](C(=O)c3ccccn3)[C@H](c3ccc(C)cc3)C[C@](O)(c3ccccn3)[C@H]2C(=O)c2ccccn2)cc1`, the TGI was > 100 µM.

Regarding `O=C(Nc1ccc(Br)cc1)c1c(-c2ccccc2)c2ccc(O)cc2oc1=O`, the TGI was > 10 µM.

As for `O=C1C(Cl)=C(N2CCN(C3=C(Cl)C(=O)c4ccccc4C3=O)CC2)C(=O)c2ccccc21`, the TGI was 2.94 µM.

On to `CCOc1cc(NC(C)=O)ccc1C(=O)NNC(=O)c1ccccc1OC(C)=O`, for which the TGI was > 52.4 µM.

`O=C(O)CN(CCNC(=O)OCC1c2ccccc2-c2ccccc21)CCNC(=O)OCC1c2ccccc2-c2ccccc21` registered a TGI of 64.4 µM.

Another experiment relates to SF-268 CNS. Briefly: NCI tumour cell line growth inhibition, 48 h.
With `CC(C)Sc1nc(C#N)cc2c1CCCC2`, the TGI is > 100 µM.

`CCOP(=O)(OCC)/C(C#N)=C/c1cnc(-c2ccccc2)[nH]1`: the TGI is > 100 µM.

For `CC(=O)OCC1OC(OC(C)(C)CC/C=C(\C)[C@@H]2C/C=C(\C)CC/C=C(\C)CC2)C(O)C(O)C1OC(C)=O` (some centres not stated), the TGI was 98.7 µM and 38.3 µM.

On to `O=C(CN1c2ccccc2Sc2ccccc21)N1CCNCC1`, for which the TGI is > 100 µM.

In the case of `CN(C)CCCOC(=O)C(c1ccccc1)C1(O)CCSCC1` (configuration not stated), the TGI is > 100 µM.

For `OCC1CCCCCCCCCCC12SCCCS2` (configuration not stated), the TGI was > 100 µM.

As to `COCOC1/C=C/CCCCC2=C(C)C=C(C1)O2` (configuration not stated), the TGI is > 100 µM.

Turning to `C=C(C)C12CC(COC(=O)c3ccccc3)C34OC5(OC1C3C1OC1(CO)C(O)C1(O)C(OC(=O)c3ccccc3)C(C)C(C(C)CCCCCCC5O)C14)O2` (configuration not stated), the TGI was > 100 µM.

For the molecule `O=C(O)c1cc2c(cc1CC(Cc1ccc3c(c1)CCC3)C(=O)O)CCC2` (configuration not stated), the TGI is > 100 µM.

Consider `COc1cc(-c2cc(=O)c3cc4c(cc3[nH]2)OCO4)cc(OC)c1O`, for which the TGI is > 10 µM.

In the case of `C[C@@]12[C@H]3CC[C@@H]1[C@H](O)C(=O)N2CC3`, the TGI was > 100 µM.

As to `COC(=O)CNC(=O)C(Cc1ccccc1)NC(=O)C(CCSC)NC(=O)C(Cc1ccc(O)cc1)NC(=O)OC(C)(C)C` (configuration not stated) (Boc-YMFG-OMe; configuration not given here), the TGI worked out at 87.7 µM.

Take `O=C1CCC[C@@H]2NC[C@@H](c3ccc4c(c3)OCO4)[C@H]12`: the TGI is > 25 µM.

Regarding `Cc1ccc([C@@H]2[C@@H](C(=O)c3ccccn3)[C@H](c3ccc(C)cc3)C[C@](O)(c3ccccn3)[C@H]2C(=O)c2ccccn2)cc1`, the TGI was > 100 µM.

For the molecule `O=C(Nc1ccc(Br)cc1)c1c(-c2ccccc2)c2ccc(O)cc2oc1=O`, the TGI is > 10 µM.

`O=C1C(Cl)=C(N2CCN(C3=C(Cl)C(=O)c4ccccc4C3=O)CC2)C(=O)c2ccccc21` displayed a TGI of 6.1 µM.

For the molecule `CCOc1cc(NC(C)=O)ccc1C(=O)NNC(=O)c1ccccc1OC(C)=O`, the TGI is > 100 µM.

For the molecule `O=C(O)CN(CCNC(=O)OCC1c2ccccc2-c2ccccc21)CCNC(=O)OCC1c2ccccc2-c2ccccc21`, the TGI came to 39.8 µM.
